What was measured:
[1] = system: breast cancer cells (MCF7); experiment: Doxorubicin drug cytotoxicity in cell culture; type: cell-based, human; settings: drug cytotoxicity assessment, FIG. 23
Protocol: Impedance Measurement for Doxorubicin Drug Effect on Breast Cancer Cell Lines: This test was performed to investigate the effect of a well-known chemotherapy drug Doxorubicin on two different cancer cell lines. Doxorubicin (DOX, C27H29NO11), also called Adriamycin™, is a popular chemotherapy drug for treating several types of cancer including breast cancer via triggering the cancer cell death. This drug was used to quantify the drug effect on breast cancer cells' metabolism in response to stresses from different dosages of the DOX, via monitoring the impedance signal change from the cancer cells before and after the DOX treatment. The drug cytotoxicity was assessed to determine the concentration of 2.0 μM, which the cancer cells start to die in a proper pace that can enable us to quantitatively characterize the DOX effect on the cancer cell's metabolism and apoptosis directly on the smart bioscaffold, as shown in FIG. 23.

MDA-MB231 = experiment: Impedance on TiO2 nanowire bioscaffold sensor of DOX-treated MDA-MB231 cells; type: cell-based, human; settings: DOX 2 μM 24 hrs, FIG. 25
Protocol: (§1) To investigate the cell impedance change due to the DOX, the two cell lines were first cultured to reach about 90% confluence and then the DOX (2 μM) was added over two time-intervals, about 24 hours and about 48 hours. The cells were then harvested using trypsin and counted using the hemocytometer and trypan blue stain to control the cell number. The cells were then suspended in about 10 mL of 1×PBS with the TiO2 nanowires sensor for about 35 minutes, and the impedance was tested likewise from about 40 kHz to about 1 MHz. The DOX is supposed to decrease the MCF7 impedance due to cell's resistance to the DOX. This is because the overexpressed P-glycoprotein 1 (P-gp), also called multidrug resistance protein 1 (MDR1) or ATP-binding cassette sub-family B member 1 (ABCB1) or cluster of differentiation 243 (CD243), can pump the foreign molecules out of the MCF7 cell.
(§2) The second set of experiment was done as in the first step, with glucose (5.5 mM) in the cell suspensions to investigate the cell impedance correspondence to glucose effect after being treated with DOX. The biosensors were done after about 35 minutes in the cell suspension, with the impedance parameters same as described previously.

MCF7 [2] = settings: MCF7 vs MDA-MB231; cited from earlier work
MCF7 [3] = experiment: Impedance on TiO2 nanowire bioscaffold sensor of DOX-treated MCF7 cells; type: cell-based, human; settings: DOX 2 μM 24 hrs, then glucose 5.5 mM for 35 minutes, 1×PBS, FIG. 24
Protocol: as §1, §2

In the case of `COc1cccc2c1C(=O)c1c(O)c3c(c(O)c1C2=O)C[C@@](O)(C(=O)CO)C[C@@H]3O[C@H]1C[C@H](N)[C@H](O)[C@H](C)O1` [Doxorubicin], the “concentration at which the cancer cells start to die in a proper pace” value [1] is reported as 2.0 µM, the “response to glucose after being pre-treated with DOX” value (MDA-MB231; glucose 5.5 mM) is reported as “no significant response to glucose” and the “impedance on the bioscaffold after DOX pre-treatment and glucose incubation” value (MDA-MB231; then glucose 5.5 mM for 35 minutes, 1×PBS) is reported as “lower impedance”. For the same molecule, the “resistance of MCF7 to DOX compared with MDA-MB231” value (MCF7 [2]) was “more resistive” and the “impedance on the bioscaffold at low frequency after DOX pre-treatment and glucose incubation” value (MCF7 [3]) was “higher impedance”.
